Source: patent publication US9834542B2, “LXR modulators” (BRISTOL-MYERS SQUIBB COMPANY, priority 2013, dated 2017)

Target: T1, LXRβ (Homo sapiens, UniProt P55055)
T1 construct: Co-transfection expression plasmids, comprising full-length LXRα (pCMX-h LXRα[…] or LXRβ (pCMX-hLXRβ)); expressed in transfected cells; host or cells: CV-1 African Green Monkey Kidney Cells
T1 sequence (P55055 1-460): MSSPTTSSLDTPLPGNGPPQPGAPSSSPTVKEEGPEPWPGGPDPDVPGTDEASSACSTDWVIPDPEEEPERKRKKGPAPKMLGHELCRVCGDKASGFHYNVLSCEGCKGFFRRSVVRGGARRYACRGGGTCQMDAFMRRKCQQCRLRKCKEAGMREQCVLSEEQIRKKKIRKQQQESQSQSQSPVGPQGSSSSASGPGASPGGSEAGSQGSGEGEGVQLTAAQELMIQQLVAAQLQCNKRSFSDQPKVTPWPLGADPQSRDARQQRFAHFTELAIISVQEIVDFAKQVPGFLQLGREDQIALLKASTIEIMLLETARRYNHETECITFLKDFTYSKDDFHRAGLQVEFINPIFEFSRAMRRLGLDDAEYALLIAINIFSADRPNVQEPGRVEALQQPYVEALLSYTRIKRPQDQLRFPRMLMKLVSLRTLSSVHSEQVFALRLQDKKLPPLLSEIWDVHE
T1 sequence (P19793 1-462 partner): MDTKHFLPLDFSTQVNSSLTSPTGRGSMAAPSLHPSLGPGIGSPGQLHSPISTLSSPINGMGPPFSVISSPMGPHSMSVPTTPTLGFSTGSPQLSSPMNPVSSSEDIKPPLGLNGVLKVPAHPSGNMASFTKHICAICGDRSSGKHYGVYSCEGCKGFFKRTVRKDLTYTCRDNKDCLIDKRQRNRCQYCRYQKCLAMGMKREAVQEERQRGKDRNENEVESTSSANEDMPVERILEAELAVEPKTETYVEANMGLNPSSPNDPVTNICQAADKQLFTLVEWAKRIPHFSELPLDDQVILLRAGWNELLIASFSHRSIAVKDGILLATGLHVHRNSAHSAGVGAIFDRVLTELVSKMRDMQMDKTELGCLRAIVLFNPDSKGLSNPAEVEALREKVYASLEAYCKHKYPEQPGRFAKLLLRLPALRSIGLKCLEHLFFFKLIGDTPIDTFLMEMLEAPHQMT
Test: Co-transfection assay (LXRE luciferase reporter), LXRβ
Type: cell-based
Conditions: for EC50: CV-1 cells transfected with pCMX-hLXRβ and LXREx1-Tk-Luciferase, 20 hours incubation; for Emax: LXRβ co-transfection, relative to high control 1-(2,4-difluorobenzyl)-2-oxo-6-(4-phenoxyphenyl)-4-(trifluoromethyl)-1,2-dihydropyridine-3-carbonitrile, read-out: % Efficacy
From the text: To measure the ability of compounds to activate or inhibit the transcriptional activity of LXR in a cell based assay, the co-transfection assay was used. It has been shown that LXR functions as a heterodimer with RXR. For the co-transfection assay, expression plasmids for LXRα and LXRβ are introduced separately via transient transfection into mammalian cells along with a luciferase reporter plasmid that contains one copy of a DNA sequence that is bound by LXR-RXR heterodimers (LXRE; Willy, P. et. al. 1995). LXRs heterodimerize with the endogenous RXR. Treatment of transfected cells with an LXR agonist increases the transcriptional activity of LXR, which is measured by an increase in luciferase activity.
CV-1 African Green Monkey Kidney Cells
Co-transfection expression plasmids, comprising full-length LXRα (pCMX-h LXRα[…] or LXRβ (pCMX-hLXRβ), reporter plasmid (LXREx1-Tk-Luciferase), and control (pCMX-Galactosidase expression vector) (Willey et al. Genes & Development 9 1033-1045 (1995)).
CV-1 cells were prepared 24 hours prior to the experiment by plating them into T-175 flasks or 500 cm^2 dishes in order to achieve 70-80% confluency on the day of the transfection. The number of cells to be transfected was determined by the number of plates to be screened. Each well of a 384 well plate requires 1.5×10^4 cells. DNA Transfection Reagent was prepared by mixing the required plasmid DNAs with a cationic lipid transfection reagent Transit 2020 (Mirus Bio) for CV1 by following the instructions provided with the reagents. Optimal DNA amounts were determined empirically per cell line and size of vessel to be transfected. For each T175 cm^2 flask a total of 59 ug for CV1 of DNA, 133 uL Transit2020 and 4.5 mL DMEM for CV1 was mixed and added. Cells were then incubated at least 5 hours at 37° C. to prepare screening cells.
Luciferase assay reagent (*Steady-Glo Luciferase Assay System by Promega, CAT#E2550) was prepared by combining before use:
Assay plates were prepared by dispensing 5 μL of compound per well of a 384 well plate to achieve final compound concentration of 10 μM and no more than 0.5% DMSO. Media was removed from the screening cells, the cells trypsinized, harvested cells by centrifugation, counted, and plated at a density of approximately 1.5×10^4 cells in the 384 well assay plate prepared above in a volume of about 95 uL. Assay plates containing both compounds and screening cells (100 μL in total volume) were incubated for 20 hours at 37° C.
After incubation with compounds, media was removed from the cells and luciferase assay reagent (50 μL/well) added. After ˜2 minutes at ambient temperature, the assay plates were read on a luminometer (PE Biosystems Northstar reader with on-board injectors, or Envision(Perkin Elmer) or equivalent).
The LXR/LXRE co-transfection assay can be used to establish the EC50/IC50 values for potency and percent activity or inhibition for efficacy. Efficacy defines the activity of a compound relative to a high control 1-(2,4-difluorobenzyl)-2-oxo-6-(4-phenoxyphenyl)-4-(trifluoromethyl)-1,2-dihydropyridine-3-carbonitrileor a low control (DMSO/vehicle). The dose response curves are generated from a 11 point curve with concentrations differing by ½ LOG units. Each point represents the average of 2 wells of data from duplicate 384 well plate.
The data from this assay is fitted to the following equation, from which the EC50 value may be solved: Y=Bottom+(Top−Bottom)/(1+10^((logEC50-X)*HillSlope)).
The EC50/IC50 is therefore defined as the concentration at which an agonist or antagonist elicits a response that is halfway between the Top (maximum) and Bottom (baseline) values. The EC50/IC50 values represented are the averages of at least 2 and normally 3 independent experiments. […]

Row | Compound | EC50 | Emax
1 | CS(=O)(=O)c1cccc(-c2ccc(-n3cc(C(F)(F)F)nc3Cl)c(-n3nncc3-c3ccc(Cl)cc3)c2)c1 [Example 2, 5-(4-chlorophenyl)-1-{4-[2-chloro-4-(trifluoromethyl)-1H-imidazol-1-yl]-3′-(methylsulfonyl)biphenyl-3-yl}-1H-1,2,3-triazole] | 680 nM | 80%
2 | Cc1nc(-c2cc(-c3cc(F)c(CO)c(S(C)(=O)=O)c3)ccc2-n2cc(C(F)(F)F)nc2C)c(-c2ccc(OC(F)(F)F)cc2)o1 [Example 373, [3-fluoro-5-(methylsulfonyl)-4′-[2-methyl-4-(trifluoromethyl)-1H-imidazol-1-yl]-3′-(2-methyl-5-{4-[(trifluoromethyl)oxy]phenyl}-1,3-oxazol-4-yl)biphenyl-4-yl]methanol] | 40 nM | 97%
3 | Cc1nc(C(=O)NCC(F)(F)F)cn1-c1ccc(-c2cccc(S(C)(=O)=O)c2)cc1-n1nncc1-c1ccc(OC(F)(F)F)cc1 [Example 3, 2-methyl-1-[3′-(methylsulfonyl)-3-(5-{4-[(trifluoromethyl)oxy]phenyl}-1H-1,2,3-triazol-1-yl)biphenyl-4-yl]-N-(2,2,2-trifluoroethyl)-1H-imidazole-4-carboxamide] | 1950 nM | 74%
4 | COc1cc(-c2oc(C)nc2-c2cc(-c3cccc(S(C)(=O)=O)c3)ccc2-n2cc(C(F)(F)F)nc2C)ccc1OC(F)F [Example 380, 5-(4-(difluoromethoxy)-3-methoxyphenyl)-2-methyl-4-(4-(2-methyl-4-(trifluoromethyl)-1H-imidazol-1-yl)-3′-(methylsulfonyl)biphenyl-3-yl)oxazole] | 53 nM | 91%
5 | Cc1nc(C(F)(F)F)cn1-c1ccc(-c2cccc(S(C)(=O)=O)c2)cc1-n1nncc1Cc1cccc(OC(F)(F)F)c1 [Example 116, 1-{3′-(methylsulfonyl)-4-[2-methyl-4-(trifluoromethyl)-1H-imidazol-1-yl]biphenyl-3-yl}-5-({3-[(trifluoromethyl)oxy]phen-yl}methyl)-1H-1,2,3-triazole] | 982 nM | 59%
6 | CS(=O)(=O)c1cc(-c2cc(Cl)c(-n3cnc(C(F)(F)F)c3)c(-n3nncc3-c3ccc(OC(F)(F)F)cc3)c2)cc(F)c1CO [Example 193, [3′-chloro-3-fluoro-5-(methylsulfonyl)-4′-[4-(trifluoromethyl)-1H-imidazol-1-yl]-5′-(5-{4-[(trifluoromethyl)oxy]phenyl}-1H-1,2,3-triazol-1-yl)biphenyl-4-yl]methanol] | 598 nM | 62%
7 | Cc1nc(C(F)F)cn1-c1ccc(-c2cccc(S(=O)(=O)N(C)C)c2)cc1-n1nncc1-c1ccc(OC(F)(F)F)cc1 [Example 155, 4′-[4-(difluoromethyl)-2-methyl-1H-imidazol-1-yl]-N,N-dimethyl-3′-(5-{4-[(trifluoromethyl)oxy]phenyl}-1H-1,2,3-triazol-1-yl)biphenyl-3-sulfonamide] | 701 nM | 93%

Next, values leading:

Row | EC50 | Emax | Compound
8 | 14 nM | 82% | CCCc1nc(-c2cc(-c3cc(F)c(CO)c(S(C)(=O)=O)c3)ccc2-n2cc(C(F)(F)F)nc2C)c(-c2ccc(OC(F)(F)F)cc2)o1 [Example 557, (3-fluoro-4′-(2-methyl-4-(trifluoromethyl)-1H-imidazol-1-yl)-5-(methylsulfonyl)-3′-(2-propyl-5-(4-(trifluoromethoxy)phenyl)oxazol-4-yl)-[1,1′-biphenyl]-4-yl)methanol]
9 | 130 nM | 45% | Cc1nc(-c2cc(-c3cc(F)c(CO)c(S(C)(=O)=O)c3)ccc2-n2cc(C(F)(F)F)nc2C)c(-c2ccc(OC3CCCCC3)nc2)o1 [Example 409, (3′-(5-(6-(cyclohexyloxy)pyridin-3-yl)-2-methyloxazol-4-yl)-3-fluoro-4′-(2-methyl-4-(trifluoromethyl)-1H-imidazol-1-yl)-5-(methylsulfonyl)biphenyl-4-yl)methanol]
10 | 109 nM | 56% | Cc1nc(-c2cc(-c3ccc(C)c(S(C)(=O)=O)c3)ccc2-n2cc(C(F)(F)F)nc2C)c(-c2cc(F)c(OC(F)F)c(F)c2)o1 [Example 470, 5-(4-(difluoromethoxy)-3,5-difluorophenyl)-2-methyl-4-(4′-methyl-4-(2-methyl-4-(trifluoromethyl)-1H-imidazol-1-yl)-3′-(methylsulfonyl)biphenyl-3-yl)oxazole]
11 | 349 nM | 77% | Cc1nc(-c2cc(-c3cccc(S(C)(=O)=O)c3)ccc2-n2cc(C(F)(F)F)nc2C)c(-c2ccc(F)c(C#N)c2)o1 [Example 506, 2-fluoro-5-(2-methyl-4-(4-(2-methyl-4-(trifluoromethyl)-1H-imidazol-1-yl)-3′-(methylsulfonyl)biphenyl-3-yl)oxazol-5-yl)benzonitrile]
12 | 34 nM | 76% | Cc1nc(C(F)(F)F)cn1-c1ccc(-c2cccc(S(C)(=O)=O)c2)cc1-c1nc(C(C)C)oc1-c1ccc(OC(F)(F)F)cc1 [Example 559, 2-isopropyl-4-(4-(2-methyl-4-(trifluoromethyl)-1H-imidazol-1-yl)-3′-(methylsulfonyl)-[1,1′-biphenyl]-3-yl)-5-(4-(trifluoromethoxy)phenyl)oxazole]
13 | 214 nM | 90% | COc1ccc(-c2oc(C)nc2-c2cc(-c3cccc(S(C)(=O)=O)c3)ccc2-n2cc(C(F)(F)F)nc2C)cn1 [Example 569, 5-(6-methoxypyridin-3-yl)-2-methyl-4-(4-(2-methyl-4-(trifluoromethyl)-1H-imidazol-1-yl)-3′-(methylsulfonyl)-[1,1′-biphenyl]-3-yl)oxazole]
14 | 52 nM | 79% | Cc1nc(-c2ccc(Cl)cc2)c(-c2cc(-c3cc(F)c(CO)c(S(C)(=O)=O)c3)ccc2-n2cc(C(F)(F)F)nc2C)o1 [Example 606, (3′-(4-(4-chlorophenyl)-2-methyloxazol-5-yl)-3-fluoro-4′-(2-methyl-4-(trifluoromethyl)-1H-imidazol-1-yl)-5-(methylsulfonyl)-[1,1′-biphenyl]-4-yl)methanol]
